pIC50: −log10 of the molar value. The source made the active and inactive calls. The rule behind the calls is not given here.

In data set [1] the test system is A549. Nature of the data set: Antitumor activity against human A549 cells xenografted in BALB/c mouse assessed as tumor volume at 10 mg/kg, ip administered every other day for 25 days. Type of data set: functional. Particulars: time 25 day. (In general: Xenograft models place foreign cells or tissue in a host animal.)
The test system of data set [2] is A549. Nature of the data set: Residual cell migration in human A549 cells at 40 nM incubated for 12 hrs by crystal violet staining based transwell assay. As to conditions: A549, 12 h.
The test system of data set [3] is A549. Nature of the data set: Induction of apoptosis in human A549 cells assessed as necrotic cells at 10 nM incubated for 24 hrs by annexin V-FITC/propidium iodide staining based flow cytometry analysis (reference value: 2.36%). Type of data set: functional. (Flow cytometry measures light scatter and fluorescence of single cells or particles in a stream.)
For data set [4], the system named is B16-F10. Nature of the data set: Antimigratory activity against mouse B16-F10 cells assessed as inhibition of cell migration at 20 nM and incubated for 12 hrs by scratch wound healing assay (reference value: 81.9 +/- 0.64%). Format: functional. Also on record: scale not given: the % may be the effect or the level left.
Another data set concerns MDA-MB-231. Nature of the data set: Antiproliferative activity against human MDA-MB-231 cells assessed as inhibition of cell growth measured after 48 hrs by MTT assay. Format: functional, cell-based. As to conditions: MDA-MB-231, 48 h. In general terms: Formazan colour is commonly taken as a measure of viable cells.
Data set [5] concerns B16-F10. Nature of the data set: Inhibition of cell migration in mouse B16-F10 cells assessed as total number of cells migrated at 10 nM incubated for 12 hrs by crystal violet staining based transwell assay (reference value: 692 +/- 11). Type of data set: functional.
Data set [6] can be described thus: Volume of distribution in Sprague-Dawley rat at 1 mg/kg, iv by LC-MS analysis. Format: ADME, organism-based. As to conditions: in vivo.
The subject of data set [7] is A549. Description: Antitumor activity against human A549 cells xenografted in BALB/c mouse assessed as upregulation of cleaved PARP expression in tumor at 5 mg/kg, ip administered every other day for 25 days by Western blotting analysis. Particulars: time 25.0 day. Type of data set: functional, organism-based.
Data set [8] deals with A549. Description: Antiproliferative activity against human A549 cells expressing lentivirus RNAi VTI-96659 assessed as inhibition of cell growth measured after 48 hrs by MTT assay. Format: functional, cell-based.
The test system of data set [9] is A549. Nature of the data set: Induction of apoptosis in human A549 cells assessed as necrotic cells at 20 nM incubated for 24 hrs by annexin V-FITC/propidium iodide staining based flow cytometry analysis (reference value: 2.36%). Format: functional.
The next data set concerns HepG2. Nature of the data set: Antiproliferative activity against human HepG2 cells assessed as inhibition of cell growth measured after 48 hrs by MTT assay. As to conditions: HepG2, 48 h. Type of data set: functional, cell-based.
For data set [10], the system named is B16-F10. Nature of the data set: Antiproliferative activity against mouse B16-F10 cells assessed as inhibition of cell growth measured after 48 hrs by MTT assay. Type of data set: functional, cell-based. Particulars: B16-F10, 48 h.
The subject of data set [11] is A549. Description: Induction of apoptosis in human A549 cells assessed as early apoptotic cells at 10 nM incubated for 24 hrs by annexin V-FITC/propidium iodide staining based flow cytometry analysis (reference value: 0.84%). Format: functional.
Data set [12] has as its system A549. Nature of the data set: Induction of apoptosis in human A549 cells assessed as late apoptotic cells at 40 nM incubated for 24 hrs by annexin V-FITC/propidium iodide staining based flow cytometry analysis (reference value: 0.37%). Format: functional.
Data set [13] deals with A549. Nature of the data set: Antitumor activity against human A549 cells xenografted in BALB/c mouse assessed as downregulation of Bcl-2 expression in tumor at 5 mg/kg, ip administered every other day for 25 days by Western blotting analysis. As to conditions: time 25.0 day. Type of data set: functional, organism-based.
Data set [14] concerns A549. Description: Induction of apoptosis in human A549 cells assessed as upregulation of Bad protein at 10 to 40 nM measured after 48 hrs by Western blot analysis. Type of data set: functional, cell-based. Particulars: dose 10-40 nM.
Data set [15] deals with A549. Description: Induction of cell cycle arrest in human A549 cells assessed as accumulation at G1 phase at 20 nM incubated for 24 hrs by PI staining based flow cytometry (Rvb= 65.68%). Format: functional.

For orientation: pIC50 means −log10 of the IC50, conventionally taken in molar units. The term Vd denotes a proportionality between amount in the body and measured concentration, not a real space. For `COc1cccc(Nc2cc(Nc3cccc(NC(=O)C4CC4)c3)ncn2)c1`, the Activity in the data set with A549 [1] worked out at 63.77%; in the data set with A549 [3], 6.5%; with B16-F10 [4] it was 39.7%; in the data set with B16-F10 [5], 510; with A549 [9] it was 6%; in the data set with A549 [11], 1.5%. Besides, the Activity with A549 [12] was found to be 26.72%; in the data set on A549 [15], 48%. In the data set with A549 [2], the level, % of control at 0.04 µM came to 32.9%. The negative logarithm of the IC50 (pIC50) in the data set on MDA-MB-231 is 8.36; in the data set on HepG2, 8.74; with B16-F10 [10], 8.48. Besides, in data set [6], the volume of distribution (Vd) worked out at 1.3 L/kg. For the same compound, the outcome with A549 [7], with A549 [8], in the data set on A549 [13] and in the data set on A549 [14] was Active.

The record behind these values is ChEMBL document CHEMBL5325400 (Eur J Med Chem, 2023).
